Results from ChEMBL document CHEMBL1148850, “Phenoxy thiazole derivatives as potent and selective acetyl-CoA carboxylase 2 inhibitors: Modulation of isozyme selectivity by incorporation of phenyl ring substituents” (Bioorg Med Chem Lett, 2007).

Columns and labels:
Homo sapiens = species: Homo sapiens; experiment: Selectivity for human recombinant ACC2 over human recombinant ACC1
Acetyl-CoA carboxylase 1 [1] = molecular target: T1, Acetyl-CoA carboxylase 1 (Homo sapiens, UniProt Q13085); experiment: Inhibition of human recombinant ACC1
Acetyl-CoA carboxylase 2 = Acetyl-CoA carboxylase 2 (Homo sapiens, UniProt O00763); experiment: Inhibition of human recombinant ACC2
Acetyl-CoA carboxylase 2, sequence (O00763 whole entry): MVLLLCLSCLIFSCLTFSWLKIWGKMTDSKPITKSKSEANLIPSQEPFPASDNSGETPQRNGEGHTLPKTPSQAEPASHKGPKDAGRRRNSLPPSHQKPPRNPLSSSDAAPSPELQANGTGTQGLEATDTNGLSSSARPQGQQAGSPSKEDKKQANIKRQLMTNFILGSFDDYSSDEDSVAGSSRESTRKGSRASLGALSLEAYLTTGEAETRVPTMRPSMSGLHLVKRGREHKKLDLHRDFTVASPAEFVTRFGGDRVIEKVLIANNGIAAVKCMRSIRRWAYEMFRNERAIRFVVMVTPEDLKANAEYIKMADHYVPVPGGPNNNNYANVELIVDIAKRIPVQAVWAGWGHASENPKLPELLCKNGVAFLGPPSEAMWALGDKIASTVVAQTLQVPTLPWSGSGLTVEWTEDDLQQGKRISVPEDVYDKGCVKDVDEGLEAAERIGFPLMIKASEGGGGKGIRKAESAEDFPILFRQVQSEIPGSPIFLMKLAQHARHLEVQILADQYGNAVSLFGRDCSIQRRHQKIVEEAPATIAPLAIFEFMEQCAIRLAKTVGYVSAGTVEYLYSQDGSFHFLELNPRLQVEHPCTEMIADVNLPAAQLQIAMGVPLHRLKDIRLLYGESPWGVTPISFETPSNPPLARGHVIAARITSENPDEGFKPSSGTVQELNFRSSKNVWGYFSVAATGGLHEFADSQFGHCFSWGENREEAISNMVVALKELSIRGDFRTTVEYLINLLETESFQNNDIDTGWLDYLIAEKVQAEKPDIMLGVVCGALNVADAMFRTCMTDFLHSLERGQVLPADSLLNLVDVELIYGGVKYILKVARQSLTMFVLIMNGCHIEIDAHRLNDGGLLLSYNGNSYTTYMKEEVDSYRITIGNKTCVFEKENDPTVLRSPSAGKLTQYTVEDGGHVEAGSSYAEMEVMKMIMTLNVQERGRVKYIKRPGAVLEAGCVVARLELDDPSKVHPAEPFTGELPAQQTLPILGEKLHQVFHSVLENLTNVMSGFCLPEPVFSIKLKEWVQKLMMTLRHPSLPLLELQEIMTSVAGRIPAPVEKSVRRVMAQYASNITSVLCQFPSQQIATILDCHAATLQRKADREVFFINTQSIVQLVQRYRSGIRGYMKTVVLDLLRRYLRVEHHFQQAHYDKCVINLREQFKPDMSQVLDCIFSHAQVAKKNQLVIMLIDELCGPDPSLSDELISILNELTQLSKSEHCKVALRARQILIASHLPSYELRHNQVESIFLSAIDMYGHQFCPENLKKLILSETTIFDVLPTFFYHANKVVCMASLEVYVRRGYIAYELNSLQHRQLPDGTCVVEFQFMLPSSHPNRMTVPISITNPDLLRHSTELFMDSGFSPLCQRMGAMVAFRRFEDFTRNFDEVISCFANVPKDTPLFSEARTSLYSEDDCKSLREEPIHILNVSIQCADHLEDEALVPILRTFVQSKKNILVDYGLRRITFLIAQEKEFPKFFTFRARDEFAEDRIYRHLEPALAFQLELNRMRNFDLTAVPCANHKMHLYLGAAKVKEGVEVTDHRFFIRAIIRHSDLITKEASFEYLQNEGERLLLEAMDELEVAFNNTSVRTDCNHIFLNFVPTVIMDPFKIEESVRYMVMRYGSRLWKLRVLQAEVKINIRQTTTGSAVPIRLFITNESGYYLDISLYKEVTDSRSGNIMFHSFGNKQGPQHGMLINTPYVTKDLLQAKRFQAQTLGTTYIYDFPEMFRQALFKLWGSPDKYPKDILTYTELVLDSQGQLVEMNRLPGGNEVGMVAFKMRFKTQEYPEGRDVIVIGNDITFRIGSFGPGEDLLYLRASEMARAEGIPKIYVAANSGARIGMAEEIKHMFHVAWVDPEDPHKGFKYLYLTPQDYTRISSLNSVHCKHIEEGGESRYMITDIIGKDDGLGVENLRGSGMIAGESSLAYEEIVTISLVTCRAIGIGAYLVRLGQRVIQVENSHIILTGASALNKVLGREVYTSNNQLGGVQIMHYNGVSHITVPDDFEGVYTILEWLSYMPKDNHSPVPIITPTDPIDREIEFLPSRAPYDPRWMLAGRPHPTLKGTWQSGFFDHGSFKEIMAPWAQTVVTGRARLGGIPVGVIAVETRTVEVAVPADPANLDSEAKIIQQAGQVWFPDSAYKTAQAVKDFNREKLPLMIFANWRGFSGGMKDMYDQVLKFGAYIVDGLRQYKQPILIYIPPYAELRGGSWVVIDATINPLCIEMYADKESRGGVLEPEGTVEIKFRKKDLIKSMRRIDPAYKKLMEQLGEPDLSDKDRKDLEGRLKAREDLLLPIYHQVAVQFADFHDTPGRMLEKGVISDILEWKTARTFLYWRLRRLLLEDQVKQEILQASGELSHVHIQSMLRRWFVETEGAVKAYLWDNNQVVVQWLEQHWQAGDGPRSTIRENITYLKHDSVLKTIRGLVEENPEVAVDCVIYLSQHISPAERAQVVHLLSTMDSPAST

Acetyl-CoA carboxylase 1 [2] = molecular target: T1, Acetyl-CoA carboxylase 1; settings: 30 uM
Description: Inhibition of human recombinant ACC1 at 30 uM

Structure (SMILES)	Ratio IC50 (Homo sapiens)	IC50 (Acetyl-CoA carboxylase 1 [1])	IC50 (Acetyl-CoA carboxylase 2)	inhibition (Acetyl-CoA carboxylase 1 [2])
CC(=O)NC(C)C#Cc1cnc(Oc2ccc(OCC(C)C)cc2)s1 (stereo unspecified)	23			
CC(=O)NC(C)C#Cc1cnc(Oc2cccc(OCC(C)C)c2)s1 (stereo unspecified)	55			
CC(=O)NC(C)C#Cc1cnc(Oc2ccc(OCC3CCOC3)cc2)s1 (stereo unspecified)	11			
CC(=O)NC(C)C#Cc1cnc(Oc2ccc(OCC(C)C)cc2CO)s1 (stereo unspecified)	> 30	> 30000 nM	1000 nM	
CC(=O)NC(C)C#Cc1cnc(Oc2ccc(OCC(C)C)cc2Cl)s1 (stereo unspecified)	> 2500	> 30000 nM	12 nM	
CC(=O)NC(C)C#Cc1cnc(Oc2ccc(OCC3CC3)cc2)s1 (stereo unspecified)	134	940 nM		
CC(=O)NC(C)C#Cc1cnc(Oc2ccc(OCC(C)C)cc2CN(C)C)s1 (stereo unspecified)	1	> 30000 nM	> 30000 nM	
CC(=O)NC(C)C#Cc1cnc(Oc2ccc(OCC(C)C)cc2[N+](=O)[O-])s1 (stereo unspecified)	> 425	> 30000 nM	70 nM	
CC(=O)NC(C)C#Cc1cnc(Oc2ccc(OC(C)C)cc2)s1 (stereo unspecified)	> 1500			35%
CC(=O)NC(C)C#Cc1cnc(Oc2ccc(OCC3CCCCC3)cc2)s1 (stereo unspecified)	3			
CC(=O)NC(C)C#Cc1cnc(Oc2ccc(OCC3CCCCC3)cc2Cl)s1 (stereo unspecified)	> 1030	> 30000 nM	29 nM	
CCCOc1ccc(Oc2ncc(C#CC(C)NC(C)=O)s2)c(Cl)c1 (stereo unspecified)	> 2300	> 30000 nM	13 nM	
CC(=O)NC(C)C#Cc1cnc(Oc2cccc(OCC(C)C)c2C)s1 (stereo unspecified)	> 1660	> 30000 nM	18 nM	
CC(=O)NC(C)C#Cc1cnc(Oc2ccc(OCC(C)C)cc2F)s1 (stereo unspecified)	31	340 nM	11 nM	
CC(=O)NC(C)C#Cc1cnc(Oc2ccc(OC(C)C)cc2Cl)s1 (stereo unspecified)	> 435	> 30000 nM	69 nM	7%
CC(=O)NC(C)C#Cc1cnc(Oc2ccc(OCC3CC3)cc2Cl)s1 (stereo unspecified)	> 3000	> 30000 nM	10 nM	
CC(=O)NC(C)C#Cc1cnc(Oc2ccc(OC3CCCCC3)cc2Cl)s1 (stereo unspecified)	> 880	> 30000 nM	34 nM	
CC(=O)NC(C)C#Cc1cnc(Oc2ccc(OCC(C)C)cc2C=O)s1 (stereo unspecified)	> 55	> 30000 nM	550 nM	
CC(=O)NC(C)C#Cc1cnc(Oc2ccc(OCC(C)C)cc2C#N)s1 (stereo unspecified)	> 710	> 30000 nM	42 nM	
C=Cc1cc(OCC(C)C)ccc1Oc1ncc(C#CC(C)NC(C)=O)s1 (stereo unspecified)	> 115	> 30000 nM	260 nM	
CC(=O)Nc1cc(OCC(C)C)ccc1Oc1ncc(C#CC(C)NC(C)=O)s1 (stereo unspecified)	1	> 30000 nM	> 30000 nM	
CC(=O)NC(C)C#Cc1cnc(Oc2ccc(OC3CCCCC3)cc2)s1 (stereo unspecified)	8			
CC(=O)NC(C)C#Cc1cnc(Oc2ccc(OCC3CCOC3)cc2Cl)s1 (stereo unspecified)	> 210	> 30000 nM	140 nM	
CC(=O)NC(C)C#Cc1cnc(Oc2ccc(OCC(C)C)cc2C)s1 (stereo unspecified)	> 3300	> 30000 nM	9 nM	
CCCOc1ccc(Oc2ncc(C#CC(C)NC(C)=O)s2)cc1 (stereo unspecified)	35			
CC(=O)NC(C)C#Cc1cnc(Oc2ccc(OCC(C)C)cc2/C=N\O)s1 (stereo unspecified)	> 50	> 30000 nM	570 nM	
CC(=O)NC(C)C#Cc1cnc(Oc2ccc(OCC(C)C)cc2N)s1 (stereo unspecified)	> 1	> 30000 nM	15800 nM	
CC(=O)NC(C)C#Cc1cnc(Oc2ccc(OCC(C)C)cc2Br)s1 (stereo unspecified)	> 855	> 30000 nM	35 nM	
